In patent publication US20250382346A1, “NEURONAL PROMOTERS AND USES THEREOF” (priority 2023, published 2025):

Columns and labels:
hM3Dq [1] = target: T1, hM3Dq (Homo sapiens, UniProt P20309, A239G/Y149C); assay: Chemogenetic manipulation of BG direct pathway in mice with hM3Dq: rotations, nigral c-Fos; format: in vivo; conditions: for c-Fos+ cells in the SNr: AAV8R12-G88P3-HA-hM3Dq; for rotation behavior (FIG. 6C), mean±SEM: control vector AAV8R12-G88P3-EYFP, n=5, no effect
T1 construct: expressed in transfected cells; host or cells: neurons of C57BL/6J mice or of macaques, transduced in vivo by nigral AAV8R12-G88P3-HA-hM3Dq
T1 sequence (P20309 whole entry Y149C/A239G): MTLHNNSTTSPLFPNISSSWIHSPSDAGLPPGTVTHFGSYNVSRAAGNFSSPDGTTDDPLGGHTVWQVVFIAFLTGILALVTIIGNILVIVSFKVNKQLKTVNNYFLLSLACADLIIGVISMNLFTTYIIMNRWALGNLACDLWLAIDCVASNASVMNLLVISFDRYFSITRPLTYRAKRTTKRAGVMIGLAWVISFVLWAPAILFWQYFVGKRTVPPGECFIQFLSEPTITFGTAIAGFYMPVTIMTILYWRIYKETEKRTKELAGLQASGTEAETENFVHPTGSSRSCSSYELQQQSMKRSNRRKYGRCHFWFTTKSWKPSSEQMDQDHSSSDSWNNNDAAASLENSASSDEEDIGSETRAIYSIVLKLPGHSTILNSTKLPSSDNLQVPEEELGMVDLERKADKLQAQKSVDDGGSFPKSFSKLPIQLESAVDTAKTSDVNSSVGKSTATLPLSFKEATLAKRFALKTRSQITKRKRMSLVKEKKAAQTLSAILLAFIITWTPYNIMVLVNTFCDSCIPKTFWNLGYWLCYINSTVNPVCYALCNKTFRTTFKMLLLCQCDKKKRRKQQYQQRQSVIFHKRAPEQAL
Procedure: Mice were anesthetized with sodium pentobarbital (Nembutal; 80 mg/kg, i.p.), and then placed into a stereotaxic device (KOPF). Eye cream was applied on both corneas to avoid dehydration. The skull above the targeted areas was thinned with a dental drill and carefully removed. Injections were conducted with a 10 μL syringe connected to a 33-Gauge needle (Neuros; Hamilton), using a microsyringe pump (Legato 130, KD Scientific). A total volume of 200 nL virus was injected into the SNr at a speed of 20 nL/min. The coordinates for the SNr were 3.4 mm posterior, 1.3 mm lateral, 4.8 mm ventral to the bregma.
Mice that were used in the behavioral experiments were then implanted with guide cannulas (KOPF) unilaterally aiming at the dorsomedial striatum (0.5 mm anterior, 1.5 mm lateral, 3.5 mm ventral to the bregma). The cannulas were fixed to the skull with dental cement. Stainless steel obturators were inserted into the guide cannulas and were replaced every other day to maintain the patency until infusions were made. Mice were allowed to recover from the surgery for at least 3 weeks before further studies.
Labeling specificity of the retrograde AAV tracers was examined. […] To explore the functional features of retrograde AAV-labeled cells, AAV8R12-G88P3-HA-hM3Dq, which enables neuronal excitation upon clozapine N-oxide (CNO) administration, were injected into the right SNr of C57BL/6J mice. […] Based on the observed infection patterns of retrograde AAV, it was reasoned that the ipsiversive rotations were a consequence of the activation of the right SNr, which is a major inhibitory output center of the BG and was labeled by the locally injected AAV.
Mice were individually handled for 10-20 seconds per day for at least 5 days to habituate them to the experimenter. The open field test was conducted in a test apparatus (50 cm×50 cm×50 cm) with an HD digital camera (Sony) positioned above the arena. On day one, mice were habituated to the apparatus for 10 minutes. On day 2, mice were administrated saline (0.1 mL i.p. or 200 nL intracranially [i.e.] through the guide cannulas). On day 3, mice were administrated with Clozapine-N-oxide (CNO, Hello Bio, HB1807; 0.3 mg/kg i.p. or 200 nL at 100 μM i.e.). All behavioral tests were conducted 30 minutes after injection. During the test, mice were allowed to freely explore the apparatus for 10 minutes. The behavioral data were analyzed with ANY-maze software (Stoelting Co.).

hM3Dq [2] = target: T1, hM3Dq; assay: In vivo electrophysiological recording in caudate of anesthetized macaques, hM3Dq
Procedure: • Electrophysiological recording was performed through a recording chamber while the monkey was anesthetized. Neural responses were recorded by a 16-channel linear probe (Plexon Inc, Uprobe) driven by a mechanical microdrive (Alpha Omega, FlexMT). Signals were passed through a head stage (Plexon Inc, HST/16V-G20 LN) and then split and filtered between 300 Hz and 5 kHz to identify spiking activity with an amplifier system (Plexon Inc, OmniPlex). Detected spikes were then sorted by commercially available software (Plexon Inc, Offline Sorter) for further analysis. To quantify the effect of CNO/DCZ injection, neural activity was recorded for 60 minutes following CNO/DCZ injection. The response time-course for each channel was obtained by counting the spikes within every 10-minute window and then normalizing to the maximal.
To determine the effect of CNO/DCZ injection on the direction of signal change, we performed Pearson correlation between neural responses and time using the ‘corr’ function in Matlab, which generates the correlation coefficient ‘r’ and significant level ‘p’. A neuron was considered to have “Increased” activity when r>0 and p<0.05; and considered to have “Decreased” activity when r<0 and p<0.05. Otherwise, neurons were considered to be “Unchanged” in their neural activities. The responses of all increased neurons were then averaged after being normalized by the maximal response (Crowe et al., 2014; Dai and Wang, 2018; Hirokawa et al., 2019) following CNO/DCZ injection, and then plotted as a function of time to generate the normalized population response.

[3] = Locomotion test in naïve macaques (no viral injection); format: in vivo; conditions: naive macaques, n=3, not significant
[4] = 34 total cells, CNO infusions, saline 40.6%
[5] = monkey CM045, 34 cells, CNO infusion into dorsomedial caudate

C[N+]1([O-])CCN(C2=Nc3cc(Cl)ccc3Nc3ccccc32)CC1 [CNO, Clozapine-N-oxide]
rotations (FIG. 6A), mean±SEM; CNO induced ipsiversive rotations (hM3Dq [1]; AAV8R12-G88P3-HA-hM3Dq nigral, CNO i.p., saline 45.25±4.128, n=8): 87.84±4.666
rotations (FIG. 6A), mean±SEM; CNO induced contraversive rotations (hM3Dq [1]; AAV8R12-G88P3-HA-hM3Dq nigral, CNO intracranial into dorsomedial striatum, saline 49.63±5.879, n=8): 15.08±3.435
c-Fos+ cells in the SNr (hM3Dq [1]; intracranial CNO infusion): No significant changes in the number of nigral c-Fos+ cells
c-Fos+ cells in the SNr (hM3Dq [1]; intraperitoneal CNO): significant increase in c-Fos+ cells in the right SNr
rotation behavior (FIG. 6C), mean±SEM (hM3Dq [1]; CNO i.p., saline 47.08±10.5): 44.72±10.89
rotation behavior (FIG. 6C), mean±SEM (hM3Dq [1]; CNO intracranial, saline 54.22±8.766): 61.39±5.774
cells in caudate activated (FIG. 12L) (hM3Dq [2]; 34 total cells, CNO infusions, saline 18.8%): 67.6%
cells in caudate inactivated (FIG. 12L) (hM3Dq [2]; [4]): 2.9%
cells in caudate unchanged (FIG. 12L) (hM3Dq [2]; [4]): 29.4%
cells in caudate activated (FIG. 12C) (hM3Dq [2]; [5]): 70.6%
cells in caudate inactivated (FIG. 12C) (hM3Dq [2]; [5]): 8.8%
cells in caudate unchanged (FIG. 12C) (hM3Dq [2]; [5]): 20.6%
percentage of contraversive and ipsiversive rotation (FIG. 11C), mean±SEM ([3]; saline 0.767±0.4296): 0.8384±0.4152
speed of contraversive rotations (FIG. 11G), mean±SEM ([3]; saline 39.07±5.889): 39.63±7.092
speed of ipsiversive rotations (FIG. 11H), mean±SEM ([3]; saline 41.49±3.96): 42.79±4.705
total distance (FIG. 11F), mean±SEM ([3]; saline 53.12±15.3): 59.48±18.65
time spending in the higher portion of the observing cages (FIG. 11D), mean±SEM ([3]; saline 55.73±2.64): 60.43±4.542
immobile time (FIG. 11E), mean±SEM ([3]; saline 149.9±21.61): 149.8±22.65
